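Exposure lasted 48 hours, with cells grown in 96-well plates and compounds tested at five concentrations. The concentration for 50% growth inhibition is given as GI50. TGI: total growth inhibition.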
Columns and labels:
Assay in all cases: inhibition of tumour cell growth, NCI panel, 48 h
[1] = tested on: TK-10 renal
[2] = tested on: NCI-H522 lung
[3] = tested on: IGROV1 ovarian
[4] = tested on: SK-MEL-5 melanoma
[5] = tested on: HT29 colon
[6] = tested on: HCT-15 colon
[7] = tested on: COLO 205 colon
[8] = tested on: MDA-MB-435
[9] = tested on: PC-3 prostate
[10] = tested on: NCI-H226 lung
[11] = tested on: SN12C renal

Row | SMILES | TGI [1] [µM] | TGI [2] [µM] | TGI [3] [µM] | TGI [4] [µM] | TGI [5] [µM] | TGI [6] [µM] | TGI [7] [µM] | TGI [8] [µM] | TGI [9] [µM] | TGI [10] [µM] | TGI [11] [µM] | GI50 [10] [µM] | GI50 [1] [µM] | GI50 [2] [µM] | GI50 [3] [µM] | GI50 [11] [µM] | GI50 [6] [µM] | GI50 [7] [µM] | GI50 [8] [µM] | GI50 [9] [µM]
1 | O=C1c2ccccc2C(=O)N1CC(O)COc1cccc2ccccc12 (stereo unspecified) | > 100 | > 100 | > 100 | > 100 | > 100 | > 100 | > 100 | > 100 | > 100 |  |  |  |  |  |  |  |  |  |  | 
2 | NC(=S)N/N=C\c1nccc2ccccc12 | 39.8 | 32.5 | 17.4 | 3.7 | 30.9 | > 100 | 2.89 | > 100 | > 100 | 0.54 | 0.779 |  |  |  |  |  |  |  |  | 
3 | Cc1ccc(S(=O)(=O)N2CCCSCC2)cc1 | > 100 | > 100 |  | > 100 | > 100 | > 100 | > 100 | > 100 | > 100 | > 100 | > 100 |  |  |  |  |  |  |  |  | 
4 | CCCC(=O)Nc1cc(/C=C/C(=O)N2CC(CCl)c3c2cc(O)c2[nH]cc(C)c32)n(C)c1 (stereo unspecified) | < 2.5e-05 | < 2.5e-05 | > 0.25 | < 2.5e-05 | 0.0285 | > 0.196 |  | < 2.5e-05 |  | 4e-05 | 0.000528 |  |  |  |  |  |  |  |  | 
5 | Oc1ccc(-c2nc3ccc(Cl)cc3s2)cc1 | 34.7 | 31.7 | 32.4 | 35.7 | 34.6 | 31.1 | 32.3 | 35.6 | 37.5 | 41.6 | 35.7 |  |  |  |  |  |  |  |  | 
6 | CC1(C)OCC=CCO1 | > 100 | > 100 | > 100 | > 100 | > 100 |  | > 100 | > 100 | > 100 | > 100 | > 100 |  |  |  |  |  |  |  |  | 
7 | COc1cc2c(cc1OCCCC(=O)Nc1ccc3ccc4cccc5ccc1c3c45)N=C[C@@H]1CCCN1C2=O | 0.237 |  |  |  | > 83.6 | > 100 | 4.77 | 3.07 | 6.69 | < 0.0243 | 0.0423 | < 0.0109 | 0.0384 | < 0.0133 | < 0.0167 | < 0.0136 | 0.169 | 2.03 | 1.61 | 0.222
8 | CC(=O)c1cc2ccccc2oc1=O | > 100 | > 100 | > 100 | > 100 | > 100 | > 100 | > 100 | > 100 | > 100 | > 100 | > 100 |  |  |  |  |  |  |  |  | 
9 | COc1cc(C(O)(CC#N)c2cc3c(cc2Br)OCO3)cc(OC)c1OC (stereo unspecified) | > 100 |  | > 100 |  | 54.9 |  | > 100 | 13.7 | > 100 | 83.3 | > 100 |  |  |  |  |  |  |  |  | 
10 | O=C1C(Cl)=C(Nc2ccc(S(=O)(=O)Nc3ccccn3)cc2)C(=O)c2ccccc21 | 22.7 | 13.7 | 23.1 | 11.4 | 22.3 | 23.2 | 27.8 | 14 | 27 | 42.1 | 30.4 |  |  |  |  |  |  |  |  | 
11 | CC1=C(C)Cc2c(O)ccc(O)c2C1 | 36.9 |  |  | 27.7 | 30.5 | 33.1 | 34.7 | 30.5 | 32.1 | 42.1 | 45.8 |  |  |  |  |  |  |  |  | 

Source: PubChem BioAssay (NCI)
